Assay [1] deals with T1, IκBα ubiquitinating enzyme (SCF complex: ROC1, Cullin1, Skp1, His-TrCP1; with E1, UbcH5b) (Homo sapiens, UniProt P62877+P63208+Q13616+Q9Y297).
T1 construct: His (polyhistidine); made in house; host or cells: insect cells (baculovirus) for the SCF complex and His-E1; E. coli for His-UBCH5b
Put plainly: Measurement of ubiquitinating enzyme activity (IκBα ubiquitination, time-resolved fluorescence with Eu(K)-labeled ubiquitin and XL665-labeled anti-GST antibody). It is filed as biochemical. The method, boiled down:
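Human SCF complex with E1 and UbcH5b ubiquitinated GST-IκBα pre-phosphorylated by IKKβ (2 mM ATP, pH 7.4, 1 h, RT), with Eu(K)-ubiquitin, 30 min RT. Stopped with EDTA, XL665 anti-GST added for 2 h; 665/620 nm TR-FRET ratio. % inhibition versus no-compound control and no-SCF blank gave IC50.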

Assay [2] deals with ICAM-1 expression in HT-29 cells. Put plainly: Measurement of ICAM-1 expressing activity (TNFα-induced ICAM-1 expression, cell ELISA). It counts as cell-based. Particulars: Homo sapiens, Table 6, cell activity inhibition test by method (3), read-out: EVALUATION (IC50 class, inhibition of cell activity). Here is the method: Method 2: Measurement of ICAM-1 expressing activity
2.0 x 10^4 HT-29 cells (ATCC) were plated onto a 96-well plate, and the cells were cultured for 48 hours using a McCoy' 5A medium (GIBCO) containing 10% inactivated fetal calf serum. The culture medium was removed, a culture medium containing a compound to be evaluated (final DMSO concentration of 0.5%) was added, and this was incubated at 37°C for 30 minutes. Thirty ng/mL of human TNFα (GIBCO) was added, and this was incubated at 37°C for 4 hours. After washing once with a washing solution (PBS containing 0.05% Tween 20), ice-cooled methanol was added, and this was left on ice for 10 minutes and then fixed. After removing methanol, PBS containing 1% BSA was added, and blocking was performed by letting this stand at room temperature for 30 minutes. Anti-ICAM-1 antibody (Santa Cruz Biotechnology) was added, and this was left to stand at room temperature for 1 hour. After washing with the washing solution, POD-labeled secondary antibody was added, and this was left to stand at room temperature for 30 minutes. This was washed, 100 µL of 100 mM citric acid buffer (pH4.2) containing 1 mM TMBZ and 0.03% H2O2 was added, and this was reacted at room temperature for 15 minutes. The reaction was terminated with 100 µL of 2 N H2SO4, and the absorbance at 450 nm was measured using ARVO-HTS (Perkin Elmer).
When cells are stimulated with TNFα, IκBα is degraded after ubiquitination resulting in the activation of NFκB and the promotion of the expression of adhesion factor ICAM-1. Therefore, the suppression of ICAM-1 expression described above serves as an indicator to determine the effectiveness of the compound in the cells.

Setting [3] is: enzyme activity inhibition test, method (1), Table 5, read-out: EVALUATION

Like-named read-outs stand apart in the source and are kept apart here. Some results are limits rather than exact numbers.

T1 sequence (Q9Y297 whole entry): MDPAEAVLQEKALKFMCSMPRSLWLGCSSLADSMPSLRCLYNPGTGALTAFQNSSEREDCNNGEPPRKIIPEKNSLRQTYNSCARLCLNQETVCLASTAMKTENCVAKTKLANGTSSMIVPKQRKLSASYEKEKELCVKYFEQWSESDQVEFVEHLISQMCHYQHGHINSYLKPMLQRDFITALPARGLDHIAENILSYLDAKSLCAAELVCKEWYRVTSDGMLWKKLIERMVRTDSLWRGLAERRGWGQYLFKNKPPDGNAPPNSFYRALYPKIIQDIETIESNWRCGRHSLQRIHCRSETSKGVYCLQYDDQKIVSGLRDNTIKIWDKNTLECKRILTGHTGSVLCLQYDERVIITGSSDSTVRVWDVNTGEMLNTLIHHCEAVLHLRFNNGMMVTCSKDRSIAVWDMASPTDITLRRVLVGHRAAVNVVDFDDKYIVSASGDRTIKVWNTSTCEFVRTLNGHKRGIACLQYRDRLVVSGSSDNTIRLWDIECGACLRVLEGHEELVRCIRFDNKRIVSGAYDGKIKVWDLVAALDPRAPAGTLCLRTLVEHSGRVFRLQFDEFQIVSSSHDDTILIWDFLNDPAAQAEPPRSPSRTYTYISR
T1 sequence (Q13616 whole entry): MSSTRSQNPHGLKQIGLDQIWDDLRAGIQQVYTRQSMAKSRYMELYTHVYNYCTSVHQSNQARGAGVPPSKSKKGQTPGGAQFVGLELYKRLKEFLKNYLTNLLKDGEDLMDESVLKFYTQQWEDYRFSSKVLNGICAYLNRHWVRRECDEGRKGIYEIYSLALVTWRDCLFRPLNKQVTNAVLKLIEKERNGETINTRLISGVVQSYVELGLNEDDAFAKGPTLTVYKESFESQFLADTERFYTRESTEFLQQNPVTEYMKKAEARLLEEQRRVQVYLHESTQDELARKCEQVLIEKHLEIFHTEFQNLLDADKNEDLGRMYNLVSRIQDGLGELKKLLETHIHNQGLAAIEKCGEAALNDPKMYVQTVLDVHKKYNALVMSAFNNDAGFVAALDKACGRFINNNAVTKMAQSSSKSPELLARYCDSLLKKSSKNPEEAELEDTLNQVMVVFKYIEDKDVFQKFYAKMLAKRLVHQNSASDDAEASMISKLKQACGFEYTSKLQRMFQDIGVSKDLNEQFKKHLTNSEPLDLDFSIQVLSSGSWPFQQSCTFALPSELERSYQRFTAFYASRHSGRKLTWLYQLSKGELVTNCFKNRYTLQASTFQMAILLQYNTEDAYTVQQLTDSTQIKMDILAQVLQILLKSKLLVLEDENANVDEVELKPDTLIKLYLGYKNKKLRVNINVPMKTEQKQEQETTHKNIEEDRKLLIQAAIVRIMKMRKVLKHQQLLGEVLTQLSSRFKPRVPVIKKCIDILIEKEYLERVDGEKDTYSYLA
T1 sequence (P63208 whole entry): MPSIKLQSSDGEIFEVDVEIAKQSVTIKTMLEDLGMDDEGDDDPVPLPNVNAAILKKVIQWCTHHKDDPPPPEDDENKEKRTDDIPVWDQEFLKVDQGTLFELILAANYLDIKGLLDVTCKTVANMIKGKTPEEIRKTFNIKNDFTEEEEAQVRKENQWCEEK
T1 sequence (P62877 whole entry): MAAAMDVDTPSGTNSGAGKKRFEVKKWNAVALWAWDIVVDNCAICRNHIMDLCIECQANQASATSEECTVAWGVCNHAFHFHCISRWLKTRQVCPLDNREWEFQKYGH

Consider `COCC1=NN(c2ccc(C(=O)O)cc2)C(=O)/C1=C\c1ccc(N2CCN(C(=O)OC)CC2)cc1` [Compound 235], for which the IC50 in assay [1] (setting [3]) and in assay [2] was < 10 µM in each case.

For `COCC1=NN(c2ccc(C(=O)O)cc2)C(=O)/C1=C\c1ccc(N2CCCC2)cc1` [Compound 236], the values for the IC50 in assay [1] (setting [3]) and in assay [2] were < 10 µM and 10 to 20 µM, respectively.

As for `COCC1=NN(c2ccc(C(=O)O)cc2)C(=O)/C1=C\c1nccs1` [Compound 237], the IC50 in assay [1] (setting [3]) is 10 to 20 µM; in assay [2] it was < 40 µM.

For `COCC1=NN(c2ccc(C(=O)O)cc2)C(=O)/C1=C\c1ccc(-n2ccnc2)cc1` [Compound 238], the IC50 was < 10 µM in assay [1] (setting [3]) and < 40 µM in assay [2].

For the molecule `COCC1=NN(c2ccc(C(=O)O)cc2)C(=O)/C1=C\c1ccc2c(c1)OCCO2` [Compound 239], the IC50 in assay [1] (setting [3]) and in assay [2] was < 10 µM each time.

On to `COCC1=NN(c2ccc(C(=O)O)cc2)C(=O)/C1=C\c1ccc(-n2cccn2)cc1` [Compound 242], for which the IC50 in assay [1] (setting [3]) is < 10 µM; in assay [2] it was 10 to 20 µM.

Regarding `COCC1=NN(c2ccc(C(=O)O)cc2)C(=O)/C1=C\c1ccc(-n2cncn2)cc1` [Compound 243], the IC50 in assay [1] (setting [3]) and in assay [2] was < 10 µM throughout.

`COc1cc(/C=C2\C(=O)N(c3ccc(C(=O)O)cc3)N=C2c2ccoc2)ccc1O` [Compound 244]: the IC50 in assay [1] (setting [3]) is < 10 µM; in assay [2] it was 10 to 20 µM.

For `COC(=O)N1CCN(c2ccc(C=C3C(=O)N(c4ccc(C(=O)O)cc4)N=C3c3ccoc3)cc2)CC1` [Compound 245], the IC50 in assay [1] was < 10 µM; in assay [2], 10 to 20 µM.

As for `O=C(O)c1ccc(N2N=C(c3ccoc3)/C(=C/c3ccc(-c4ccccc4F)o3)C2=O)cc1` [Compound 246], the IC50 in assay [1] (setting [3]) and in assay [2] was < 10 µM each time.

Take `O=C(O)c1ccc(N2N=C(c3ccoc3)/C(=C/c3ccc(CO)o3)C2=O)cc1` [Compound 247]: the IC50 in assay [1] (setting [3]) was < 10 µM; in assay [2] it was < 40 µM.

With `O=C(O)c1ccc(N2N=C(c3ccoc3)/C(=C/c3ccc(N4CCCC4)cc3)C2=O)cc1` [Compound 248], the IC50 in assay [1] (setting [3]) is < 10 µM; in assay [2], 10 to 20 µM.

Regarding `O=C(O)c1ccc(N2N=C(c3ccoc3)/C(=C/c3nccs3)C2=O)cc1` [Compound 249], the IC50 in assay [1] (setting [3]) was 10 to 20 µM; in assay [2], < 40 µM.

Turning to `O=C(O)c1ccc(N2N=C(c3ccoc3)/C(=C/c3ccc(-n4ccnc4)cc3)C2=O)cc1` [Compound 250], the figures for the IC50 in assay [1] (setting [3]) and in assay [2] were < 10 µM and < 40 µM, respectively.

Turning to `O=C(O)c1ccc(N2N=C(c3ccoc3)/C(=C/c3ccc(-n4cncn4)cc3)C2=O)cc1` [Compound 252], the IC50 was < 10 µM in assay [1] (setting [3]) and < 40 µM in assay [2].

Regarding `CC1=NN(c2ccc(C(=O)O)cc2)C(=O)/C1=C\c1ccc2ccccc2c1` [Compound 253], the IC50 in assay [1] (setting [3]) was < 10 µM; in assay [2], 10 to 20 µM.

Take `COC(=O)N1CCN(c2ccc(C=C3C(=O)N(c4ccc(C(=O)O)cc4)N=C3C)cc2)CC1` [Compound 254]: the results for the IC50 in assay [1] and in assay [2] were < 10 µM and < 40 µM, respectively.

Regarding `CC1=NN(c2ccc(C(=O)O)cc2)C(=O)/C1=C\c1ccc(CO)o1` [Compound 255], the IC50 in assay [1] (setting [3]) was < 10 µM; in assay [2] it was 10 to 20 µM.

For the molecule `CC1=NN(c2ccc(C(=O)O)cc2)C(=O)/C1=C\c1ccc(N2CCCC2)cc1` [Compound 256], the figures for the IC50 in assay [1] (setting [3]) and in assay [2] were 10 to 20 µM and < 40 µM, respectively.

Regarding `CC1=NN(c2ccc(C(=O)O)cc2)C(=O)/C1=C\c1ccc(-n2ccnc2)cc1` [Compound 258], the results for the IC50 in assay [1] (setting [3]) and in assay [2] were < 10 µM and 10 to 20 µM, respectively.

Consider `CC1=NN(c2ccc(C(=O)O)cc2)C(=O)/C1=C\c1ccc2c(c1)OCCO2` [Compound 259], for which the IC50 in assay [1] (setting [3]) and in assay [2] was < 10 µM each time.

Regarding `CC1=NN(c2ccc(C(=O)O)cc2)C(=O)/C1=C\c1ccc(-n2cccn2)cc1` [Compound 261], the IC50 in assay [1] (setting [3]) was < 10 µM; in assay [2], 10 to 20 µM.

On to `CC1=NN(c2ccc(C(=O)O)cc2)C(=O)/C1=C\c1ccc(-n2cncn2)cc1` [Compound 262], for which the IC50 in assay [1] (setting [3]) is < 10 µM; in assay [2], 10 to 20 µM.

As for `COc1cc(/C=C2\C(=O)N(c3ccc(C(=O)O)cc3)N=C2Cc2ccccc2)ccc1O` [Compound 263], the IC50 in assay [1] (setting [3]) and in assay [2] was 10 to 20 µM in each case.

For `COc1cc(/C=C2\C(=O)N(c3ccc(C(=O)O)cc3)N=C2Cc2ccccc2)ccc1OCc1ccccc1` [Compound 265], the IC50 in assay [1] (setting [3]) and in assay [2] was 10 to 20 µM throughout.

Consider `COC(=O)N1CCN(c2ccc(/C=C3\C(=O)N(c4ccc(C(=O)O)cc4)N=C3Cc3ccccc3)cc2)CC1` [Compound 266], for which the IC50 in assay [1] (setting [3]) is < 10 µM; in assay [2], 10 to 20 µM.

Consider `O=C(O)c1ccc(N2N=C(Cc3ccccc3)/C(=C/c3ccc(-c4ccccc4F)o3)C2=O)cc1` [Compound 267, 4-{3-Benzyl-4-[5-(2-fluorophenyl)-furan-2-ylmethylenc]-5-oxo-4.5-dihydropyrazol-1-yl} benzoic acid], for which the IC50 in assay [1] (setting [3]) and in assay [2] was < 10 µM in each case.

Regarding `O=C(O)c1ccc(N2N=C(Cc3ccccc3)/C(=C/c3ccc(CO)o3)C2=O)cc1` [Compound 268], the IC50 in assay [1] (setting [3]) is 10 to 20 µM; in assay [2], < 40 µM.

For the molecule `O=C(O)c1ccc(N2N=C(Cc3ccccc3)/C(=C/c3ccc(-n4ccnc4)cc3)C2=O)cc1` [Compound 271], the IC50 is 10 to 20 µM in assay [1] (setting [3]) and < 40 µM in assay [2].

On to `O=C(O)c1ccc(N2N=C(Cc3ccccc3)/C(=C/c3ccc4c(c3)OCCO4)C2=O)cc1` [Compound 272], for which the results for the IC50 in assay [1] (setting [3]) and in assay [2] were 10 to 20 µM and < 10 µM, respectively.

Take `CN1CCN(c2ccc(/C=C3\C(=O)N(c4ccc(C(=O)O)cc4)N=C3Cc3ccccc3)cc2)CC1` [Compound 274]: the values for the IC50 in assay [1] (setting [3]) and in assay [2] were 10 to 20 µM and < 40 µM, respectively.

Regarding `COc1ccc(C2=NN(c3ccc(C(=O)O)cc3)C(=O)/C2=C\c2ccc(OCc3ccccc3)c(OC)c2)cc1OC` [Compound 277], the values for the IC50 in assay [1] (setting [3]) and in assay [2] were < 10 µM and 10 to 20 µM, respectively.

For the molecule `COC(=O)N1CCN(c2ccc(/C=C3\C(=O)N(c4ccc(C(=O)O)cc4)N=C3c3ccc(OC)c(OC)c3)cc2)CC1` [Compound 279], the results for the IC50 in assay [1] (setting [3]) and in assay [2] were < 10 µM and 10 to 20 µM, respectively.

Consider `COc1ccc(C2=NN(c3ccc(C(=O)O)cc3)C(=O)/C2=C\c2ccc(CO)o2)cc1OC` [Compound 280], for which the results for the IC50 in assay [1] (setting [3]) and in assay [2] were 10 to 20 µM and < 40 µM, respectively.

Turning to `COc1ccc(C2=NN(c3ccc(C(=O)O)cc3)C(=O)/C2=C\c2ccc(N3CCCC3)cc2)cc1OC` [Compound 281], the IC50 in assay [1] (setting [3]) was < 10 µM; in assay [2], 10 to 20 µM.

For the molecule `COc1ccc(C2=NN(c3ccc(C(=O)O)cc3)C(=O)/C2=C\c2ccc3c(c2)OCCO3)cc1OC` [Compound 283], the IC50 in assay [1] (setting [3]) and in assay [2] was < 10 µM throughout.

With `O=C(O)c1ccc(N2N=C(c3ccncc3)/C(=C/c3ccc(N4CCCC4)cc3)C2=O)cc1` [Compound 287], the IC50 in assay [1] (setting [3]) is < 10 µM; in assay [2], 10 to 20 µM.

Consider `O=C(O)c1ccc(N2N=C(c3ccccn3)/C(=C/c3ccc(-c4ccccc4F)o3)C2=O)cc1` [Compound 290], for which the IC50 in assay [1] (setting [3]) was < 10 µM; in assay [2], 10 to 20 µM.

With `O=C(O)c1ccc(N2N=C(c3ccccn3)/C(=C/c3ccc(N4CCCC4)cc3)C2=O)cc1` [Compound 291], the IC50 in assay [1] (setting [3]) and in assay [2] was 10 to 20 µM throughout.

In the case of `CCCCC1=NN(c2ccc(C(=O)O)cc2)C(=O)C1=Cc1ccc(O)c(OC)c1` [Compound 295], the IC50 in assay [1] and in assay [2] was 10 to 20 µM each time.

For `CCCCC1=NN(c2ccc(C(=O)O)cc2)C(=O)/C1=C\c1ccc(OCc2ccccc2)c(OC)c1` [Compound 296], the IC50 in assay [1] (setting [3]) is < 10 µM; in assay [2], < 40 µM.

Take `CCCCC1=NN(c2ccc(C(=O)O)cc2)C(=O)/C1=C\c1cccc2nccnc12` [Compound 297]: the IC50 in assay [1] (setting [3]) and in assay [2] was 10 to 20 µM in each case.

Consider `CCCCC1=NN(c2ccc(C(=O)O)cc2)C(=O)/C1=C\c1ccc(N2CCN(C(=O)OC)CC2)cc1` [Compound 298], for which the results for the IC50 in assay [1] (setting [3]) and in assay [2] were < 10 µM and 10 to 20 µM, respectively.

`CCCCC1=NN(c2ccc(C(=O)O)cc2)C(=O)/C1=C\c1ccc(CO)o1` [Compound 300]: the IC50 in assay [1] (setting [3]) is < 10 µM; in assay [2], 10 to 20 µM.

As to `CCCCC1=NN(c2ccc(C(=O)O)cc2)C(=O)/C1=C\c1ccc(N2CCCC2)cc1` [Compound 301], the IC50 was 10 to 20 µM in assay [1] (setting [3]) and < 10 µM in assay [2].

For the origin of these results see patent EP1900728A1 (Genecare Research Institute Co., Ltd, priority 2005, dated 2006).
